Measured values reported in the supplement of paper PMC10307832.

Key:
Assay in all cases: relative viability (nuclei count vs DMSO), 5 days (fraction); higher = more cells survive
[1] = compound: CC(C)N(CCCNC(=O)Nc1ccc(C(C)(C)C)cc1)C[C@H]1O[C@@H](n2ccc3c(N)ncnc32)[C@H](O)[C@@H]1O + CS(=O)(=O)N1CCN(Cc2cc3nc(-c4cccc5[nH]ncc45)nc(N4CCOCC4)c3s2)CC1 [Pictilisib] (partner 1 µM)
Summary of the method: (§1)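 Relative viability was taken as the ratio of nuclei in treated wells to nuclei in vehicle wells. Lung cancer cell lines in 1536-well plates received compounds by pin tool one day after seeding, either one drug alone or a fixed anchor-drug dose plus five library-drug doses (not always all listed) in √10 steps. Nuclei were counted on 4× images after 5 days of treatment, and values are medians of duplicate plates.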

Shikonin + Foretinib = compound: CC(C)=CC[C@@H](O)C1=CC(=O)c2c(O)ccc(O)c2C1=O [Shikonin] + COc1cc2c(Oc3ccc(NC(=O)C4(C(=O)Nc5ccc(F)cc5)CC4)cc3F)ccnc2cc1OCCCN1CCOCC1 [Foretinib] (partner 0.25 µM)
Summary of the method: as §1

Shikonin + Crizotinib = compound: CC(C)=CC[C@@H](O)C1=CC(=O)c2c(O)ccc(O)c2C1=O [Shikonin] + C[C@@H](Oc1cc(-c2cnn(C3CCNCC3)c2)cnc1N)c1c(Cl)ccc(F)c1Cl [Crizotinib] (partner 1 µM)
Summary of the method: as §1

[2] = compound: CC(C)N(CCCNC(=O)Nc1ccc(C(C)(C)C)cc1)C[C@H]1O[C@@H](n2ccc3c(N)ncnc32)[C@H](O)[C@@H]1O + CC(=O)Nc1cccc(-n2c(=O)n(C3CC3)c(=O)c3c(Nc4ccc(I)cc4F)n(C)c(=O)c(C)c32)c1 [Trametinib] (partner 0.02 µM)
Summary of the method: as §1

| Cell Line | relative viability ([1]; first compound 0.08 µM) | relative viability ([1]; first compound 0.253 µM) | relative viability ([1]; first compound 2.53 µM) | relative viability ([1]; first compound 8 µM) | relative viability (Shikonin + Foretinib; first compound 0.01 µM) | relative viability (Shikonin + Foretinib; first compound 0.1 µM) | relative viability (Shikonin + Foretinib; first compound 0.3162 µM) | relative viability (Shikonin + Foretinib; first compound 1 µM) | relative viability (Shikonin + Crizotinib; first compound 0.01 µM) | relative viability (Shikonin + Crizotinib; first compound 0.1 µM) | relative viability (Shikonin + Crizotinib; first compound 0.3162 µM) | relative viability (Shikonin + Crizotinib; first compound 1 µM) | relative viability ([2]; first compound 0.08 µM) | relative viability ([2]; first compound 0.253 µM) | relative viability ([2]; first compound 0.8 µM) | relative viability ([2]; first compound 2.53 µM) | relative viability ([2]; first compound 8 µM) | relative viability ([1]; first compound 0.8 µM) |
| --- | --- | --- | --- | --- | --- | --- | --- | --- | --- | --- | --- | --- | --- | --- | --- | --- | --- | --- |
| NCI-H1355 | 0.376 | 0.337 | 0.518 | 0.404 | 1.03 | 1.16 | 1.04 | 1.04 | 1.16 | 1.31 | 1.19 | 1.12 | 0.419 | 0.416 | 0.388 | 0.458 | 0.38 |  |
| HOP-62 | 0.723 | 0.413 | 0.776 | 0.342 | 1.28 | 1.25 | 1.28 | 1.28 | 0.61 | 0.95 | 0.32 | 1.02 | 0.349 | 0.432 | 0.316 | 0.347 | 0.38 | 0.655 |
| NCI-H2087 | 0.898 | 0.778 | 0.963 | 0.653 | 1.04 | 1.07 | 1.19 | 1.1 | 1.07 | 0.781 | 0.923 | 0.824 | 0.165 | 0.191 | 0.225 | 0.232 | 0.22 | 0.745 |
